According to patent publication US11312758B2, “Peptides with vasodilatory and/or diuretic functions” (National University of Singapore, priority 2016, dated 2022):
Values joined by “and” are separate entries in the source; they are usually repeats but may differ in a detail not shown here. Equal entries are not always repeated. Positions of bridges follow the written chain, without caps; N, C: chain ends. Residues, ends and D or L forms follow the SMILES beside them.

Tests used:
rat NPR-A [1] = target: T1, rat NPR-A (Rattus norvegicus, UniProt P18910); test: Whole cell cGMP assay, 30 min end-point dose-response in CHO-K1 cells transiently expressing NPR-A; type: cell-based
T1 construct: expressed in transfected cells; host or cells: CHO-K1
T1 sequence (P18910 29-1057): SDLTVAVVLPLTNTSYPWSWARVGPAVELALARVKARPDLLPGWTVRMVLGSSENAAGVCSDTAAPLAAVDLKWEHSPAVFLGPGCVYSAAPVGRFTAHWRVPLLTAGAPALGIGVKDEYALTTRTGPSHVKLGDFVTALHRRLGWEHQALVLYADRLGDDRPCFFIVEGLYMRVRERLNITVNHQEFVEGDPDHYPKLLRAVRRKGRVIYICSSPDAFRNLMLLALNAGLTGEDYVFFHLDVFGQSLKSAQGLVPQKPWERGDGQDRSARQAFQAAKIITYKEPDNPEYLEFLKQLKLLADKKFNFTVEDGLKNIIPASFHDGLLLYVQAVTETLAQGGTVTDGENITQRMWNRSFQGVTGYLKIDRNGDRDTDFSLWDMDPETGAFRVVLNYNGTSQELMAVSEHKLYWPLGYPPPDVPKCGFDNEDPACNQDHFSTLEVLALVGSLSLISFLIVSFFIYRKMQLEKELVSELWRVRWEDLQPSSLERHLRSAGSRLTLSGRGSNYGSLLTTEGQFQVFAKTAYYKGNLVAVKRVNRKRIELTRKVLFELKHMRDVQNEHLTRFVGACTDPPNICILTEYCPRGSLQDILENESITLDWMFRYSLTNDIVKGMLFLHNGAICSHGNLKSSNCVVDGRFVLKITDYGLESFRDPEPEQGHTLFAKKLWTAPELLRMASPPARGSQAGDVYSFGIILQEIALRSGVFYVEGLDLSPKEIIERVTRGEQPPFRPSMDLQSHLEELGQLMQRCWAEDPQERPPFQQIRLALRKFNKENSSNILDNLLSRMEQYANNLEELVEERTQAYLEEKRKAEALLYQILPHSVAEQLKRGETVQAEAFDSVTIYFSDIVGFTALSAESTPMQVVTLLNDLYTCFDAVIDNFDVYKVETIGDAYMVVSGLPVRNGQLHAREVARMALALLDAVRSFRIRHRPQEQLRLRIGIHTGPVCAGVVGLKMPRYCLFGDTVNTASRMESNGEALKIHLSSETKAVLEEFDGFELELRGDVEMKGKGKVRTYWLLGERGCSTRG
Description: (§1) The experiments were performed as described in Sridharan et al., [Biochem J 469 (2): 255-66 (2015)]. Dulbecco's modified Eagle's medium supplemented with 10% fetal bovine serum, 100 U/ml penicillin and 100 μg/ml streptomycin and 2 mM glutamine was used to grow CHO-K1 cells in a humidified incubator at 37° C. with 5% CO2. The cells were maintained by sub-culturing using 0.5% trypsin every three days. Cells (1×10^5) were seeded per well in 24-well plate and grown for 16 h. Cells in each well were transfected with 0.8 μg of plasmid encoding rat NPR-A using 2 μl of Lipofectamine™ 2000 transfection reagent. Cells were treated with the peptides 24 h after transfection.
NPR-A transfected CHO-K1 cells were treated with varying concentrations of peptides (10 nM to 10 μM dissolved in basal media containing 0.5 mM IBMX) for 30 min. The end-point accumulation of cGMP was measured after cell-lysis with 200 μl of 0.1 N HCl using Enzo life sciences cGMP ELISA kit (manufacturer's protocol).

[2] = test system: anesthetized male SD rats; test: In-vivo activity assay: peptide infusion in anesthetized rats (MAP, HR, PP, urine flow); set-up: species or system rat
Description: Male Sprague-Dawley (SD) rats (220-280 g) were obtained from Invivos, Singapore. Animals were acclimatized in the Animal Holding unit, NUS for 3 days before the experiment. The experiments were conducted under the guidance and approval of Institutional Animal Care and Use Committee, NUS (041/12).
The experiments were performed as described in Sridharan et al., [Biochem J 469 (2): 255-66 (2015)]. In brief, animals were anesthetized with sodium pentobarbital (60-70 mg/kg) and catheters were inserted in femoral artery, vein and urinary bladder. The body temperature of the animals was maintained using a thermostatic heat pad at 37° C. Continuous infusions (2 ml/h) of 0.2% BSA saline (with or without peptide) was administered through the femoral vein while a pressure transducer attached to the femoral artery recorded on-line changes in mean arterial pressure (MAP), heart rate (HR) and pulse pressure (PP). Urine was collected and the volume was measured after every 10 min. Experiments encompassed control (2×10 min), experimental (1×10 min) and recovery (4×10 min) periods. All animals were euthanized at the end of the experiment in carbon-di-oxide chambers.

rat NPR-A [3] = target: T1, rat NPR-A; test: Time-chase study of cGMP accumulation (NPR-A activation kinetics) at EC50 concentration of peptide; type: cell-based
Description: as §1
Time-chase study was performed by treating the cells with EC50 concentration of the peptides. The reactions were terminated at the indicated time-points (0, 2, 5, 10, 20 and 30 min) by treating the cells with 0.1 N HCl. The cGMP concentration in the cell lysate was measured using cGMP ELISA kit (Enzo life sciences).

CC[C@H](C)[C@@H]1NC(=O)[C@H](CCCNC(=N)N)NC(=O)[C@H](CC(=O)O)NC(=O)[C@H](CCSC)NC(=O)[C@H](CCCNC(=N)N)NC(=O)CNC(=O)[C@H](CC(=O)O)NC(=O)[C@H](Cc2ccccc2)NC(=O)[C@@H](NC(=O)[C@H](CO)NC(=O)[C@H](CO)NC(=O)[C@H](CCCNC(=N)N)NC(=O)[C@H](CCCNC(=N)N)NC(=O)[C@H](CC(C)C)NC(=O)[C@@H](N)CO)CSSC[C@@H](C(=O)N[C@@H](CC(N)=O)C(=O)N[C@@H](CO)C(=O)N[C@@H](Cc2ccccc2)C(=O)N[C@@H](CCCNC(=N)N)C(=O)N[C@@H](Cc2ccc(O)cc2)C(=O)O)NC(=O)CNC(=O)[C@H](CC(C)C)NC(=O)[C@H](CC(=O)O)NC(=O)[C@H](CO)NC(=O)[C@H](CCC(N)=O)NC(=O)[C@H](C)NC(=O)CNC1=O [^DGDANP] (H-SLRRSSCFDGRMDRIGAQSDLGCNSFRY-OH; disulfide 7-23; N-terminus assumed)
NPR-A activation potency, Ratio compared ANP (rat NPR-A [1]): 7.8 | fold drop in activity compared to ANP (rat NPR-A [1]; cGMP response): 8 fold | NPR-A activation potency, Ratio compared wild type NPs (rat NPR-A [1]; negative = more potent than wild type): 7.8 | HR Rate of change per unit change in MAP ([2]; 2 nmol/kg/min infusion): 4.4 | PP Rate of change per unit change in MAP ([2]; 2 nmol/kg/min infusion): 0.5 | delay of the peak of diuresis ([2]; 2 nmol/kg/min infusion): 10 min | Mean arterial pressure Peak response ([2]; 2.0 nmol/kg/min infusion): −4.8±2.3 mmHg and −4.8 ± 2.9 mmHg | Urine flow rate Peak Time ([2]; 2.0 nmol/kg/min infusion): 30 min | Urine flow rate Peak response ([2]; 2.0 nmol/kg/min infusion): 7.9 ± 2.1 µL/min and 7.9 ± 2.0 µL/min | Rate of generation of cGMP, Ratio compared ANP (rat NPR-A [3]): 56.9 | Rate of generation of cGMP, Ratio compared wild type NPs (rat NPR-A [3]): 56.9 | times slower activation kinetics compared to the wild type (ANP) (rat NPR-A [3]): 7.8 times | Rate of generation of cGMP (rat NPR-A [3]; EC50 concentration of peptide): 0.14 pmol cGMP/pmol peptide | time of peak / maximum accumulation of cGMP (rat NPR-A [3]; EC50 concentration of peptide): 10 min
